Assay results: patent US20250339426A1, “GCN2 MODULATOR FOR TREATING CANCER” (HIBERCELL, INC., priority 2022, published 2025)

Legend:
[1] = tested on: ASNS, PSAT1, PUMA, HIF1α, HIF2a in DLD-1 tumors; test: Tumor IHC, DLD-1 tumors; format: in vivo, BALB/c nude mice
Protocol: Immunohistochemical analysis was carried out on tumors that were collected at the end of the study described in Example 6. Formalin-fixed paraffin-embedded samples were sectioned at 5 μm thickness and mounted on Superfrost Plus microscope slides (Fisher Scientific). All immunohistochemical (IHC) staining was performed on Bond Rx auto-stainer (Leica Biosystems) using the conventional TSA-amplified detection system. Primary antibodies used were as follows: a-ASNS (Cell Signaling Technology #92479), a-PUMA (Cell Signaling Technology #98672), a-PSAT1 (Proteintech #10501-1-AP), a-PHGDH (Proteintech #14719-1-AP), HIF-1a-Novus Biologicals NB 100-479, HIF-2a-Novus Biologicals NB100-122SS, and GLUT-1-EMB Biosciences 07-1401. TSA-conjugated Alexa488, Alexa 568 and Alexa647 fluorophores from Invitrogen (#B40953, #B40956, and #B40958) were used at 1:500 dilution. Slides were counterstained with DAPI and cover slipped using Mowiol anti-fade mounting media (Sigma #D2522).
Slides were imaged with Aperio Versa 200 (Leica Biosystems) whole-slide scanner using 10×/0.32NA objective, and the data were analyzed using custom-written macros in ImageJ/FIJI (NIH). Briefly, 150 μm of outer edges of the tumor sections and necrotic regions (determined by lack of 4′,6-diamidino-2-phenylindole (DAPI) signal or presence of condensed DNA) were eliminated from the analysis. Gaussian-blurred DAPI channel was used to measure the area of the tumor tissue. Scans of immune-staining were processed to remove background, then total intensity value above appropriate threshold levels was measured and normalized to tissue area. All graphing and statistics (one-way ANOVA and pair-wise comparisons) were performed using Prism GraphPad.

[2] = tested on: HIF2α and GLUT1 in 786-O tumors; test: Tumor IHC, 786-O tumors (DC101 combination study); format: in vivo, BALB/c nude mice; conditions: HC-7366 2 mg/kg twice daily, DC101 15 mg/kg twice a week
Protocol: 786-O (human renal cell carcinoma cancer cells): Female 6-8 weeks old BALB/c nude mice were inoculated subcutaneously on the right flank with 786-O tumor cells (5×10^6) in 0.1 ml of RPMI1640 medium without serum for tumor development. The treatments were started when the mean tumor size reached approximately 189 mm^3 after three weeks post inoculation and continued until end of study by twice daily oral gavage dosing of HC-7366 at listed doses (vehicle or 2 mg/kg HC-7366, FIGS. 52-54). For the DC101 combination study, DC101 (murine monoclonal anti-VEGFR2 antibody) was dosed at 15 mg/kg twice a week by intraperitoneal injection.
Immunohistochemical analysis was carried out on tumors that were collected at the end of the study described in Example 6. […]
Slides were imaged with Aperio Versa 200 (Leica Biosystems) whole-slide scanner using 10×/0.32NA objective, and the data were analyzed using custom-written macros in ImageJ/FIJI (NIH). Briefly, 150 μm of outer edges of the tumor sections and necrotic regions (determined by lack of 4′,6-diamidino-2-phenylindole (DAPI) signal or presence of condensed DNA) were eliminated from the analysis. […] Scans of immune-staining were processed to remove background, then total intensity value above appropriate threshold levels was measured and normalized to tissue area. […]

[3] = tested on: MFE280 (human endometrial cancer cells); test: In vivo tumor growth inhibition, MFE280 xenograft; set-up: species or system Athymic Nude-Foxn1nu mice
[4] = tested on: LoVo (human colorectal cancer cells); test: In vivo tumor growth inhibition, LoVo xenograft; set-up: species or system BALB/c nude mice; conditions: both 1 and 3 mg/kg twice daily oral
Protocol: LoVo (human colorectal cancer cells): Female 6-8 weeks old BALB/c nude mice were inoculated subcutaneously on the right flank with LoVo tumor cells (5×10^6) in 0.1 ml of EMEM medium without serum for tumor development. The treatments were started when the mean tumor size reached approximately 243 mm^3 at Day 16 post inoculation and continued until end of study by twice daily oral gavage dosing of HC-7366 at listed doses (vehicle, 0.3 mg/kg HC-7366, 1 mg/kg HC-7366, 3 mg/kg HC-7366, 10 mg/kg HC-7366, or 30 mg/kg HC-7366, FIGS. 8-9).
[formula] • 2.2.2 Tumor Measurements: The measurement of tumor size was conducted three times weekly with a caliper and recorded. The tumor volume (mm^3) was estimated using the formula: TV=a×b^2/2, where “a” and “b” is long and short diameters of a tumor, respectively. Tumor volume was calculated using the formula [tumor volume (mm^3)=π/6×length×width^2).
Regression was calculated using the formula=100×ΔT/T initial, if ΔT<0. Animals with 0 mm^3 tumor volume (no measurable tumor) for three consecutive measurements were considered as complete responders and animals with 50% tumor regressions were partial responders.

ATF4 = ATF4 activity assay (HEK293-ATF4-Luc, luciferase); format: cell-based; conditions: 12.5 nM Halofuginone, 6 hours, FIG. 3
Protocol: HEK293-ATF4-Luc cells were with culture medium 1.5e^5 cells/mL and 25 μL of cell suspension was added into each well of 384-well cell culture plate (Corning, CLS3570-50EA) as designated and transferred into 37° C.-5% CO2 incubator (Thermo Scientific) overnight for cell attachment. HC-7366 was serially diluted to 11 concentrations by 3-fold dilution in DMSO and 25 nL of stock was plated into cell plate by Echo550 (Labcyte, Echo550), then incubated for 30 minutes at 37° C. After HC-7366 treatment, cells were treated with either DMSO or 12.5 nM Halofuginone to activate GCN2 for 6 hours. After 6 hours, 25 μL of One-Glo reagent (Promega, cat #: E6120) was added into each well to be detected (at 1:1 to culture medium). Then the plates were placed at room temperature for 10 min followed by luciferase luminescence reading on EnVision (PerkinElmer). The data were analyzed by XLfit (v5.3.1.3), equation 201.

MOLM-16 xenograft tumors = test: Metabolomic analysis of MOLM-16 xenograft tumors; format: in vivo, mice; conditions: four days
Protocol: MOLM-16 xenograft tumors were treated with Vehicle or HC-7366 (0.3, 1, 3, 10 or 30 mg/kg) for four days, and snap frozen tumors were collected for metabolomic analysis (n=12). Metabolic analysis was performed at Metabolon on the LC/MS/MS and Polar LC platforms. Data was normalized to Vehicle group and Welch's two-sample t-test was performed for statistical analysis. Heat maps show metabolite levels normalized to vehicle control (FIGS. 90, 94, 102, and 107).

[5] = end of study (day 20), bell-shaped manner
[6] = printed 'in FaDu tumors', FIGS. 29-39

CNC(=O)c1ncn2cc(-c3c(F)ccc(NS(=O)(=O)c4cc(Cl)cnc4OC)c3F)ncc12 [HC-7366, 6-(3-((5-chloro-2-methoxypyridine)-3-sulfonamido)-2,6-difluorophenyl)-N-methylimidazo[1,5-a]pyrazine-1-carboxamide]
ASNS by IHC [1, 5]: potently induced
PSAT1 by IHC [1, 5]: potently induced
PUMA by IHC [1, 5]: potently induced
HIF1α protein levels [1, 6]: significantly reduced
HIF2α protein levels [1, 6]: significantly reduced
GLUT1 levels by IHC [2]: significantly reduced
HIF2α by IHC ([2]; single agents and combination): significantly decreased
tumor growth inhibition ([3]; HC-7366 0.5 mg/kg twice daily oral): 45%
tumor growth inhibition ([3]; HC-7366 2 mg/kg twice daily oral): 53%
tumor growth inhibition [4]: 94%
ATF4 activity, cells treated with HC-7366 and Halofuginone (ATF4): GCN2 inhibitory effect
aspartate and cysteine levels (MOLM-16 xenograft tumors; 0.3-30 mg/kg): decreased
glutathione levels (GSH and GSSG) (MOLM-16 xenograft tumors; 0.3-30 mg/kg): significantly reduced
levels of most amino acids (MOLM-16 xenograft tumors; 0.3-30 mg/kg): significantly elevated
metabolites involved in pyrimidine synthesis (MOLM-16 xenograft tumors; 0.3-30 mg/kg): significantly reduced
γ-glutamyl-amino acids (MOLM-16 xenograft tumors; 0.3-30 mg/kg): enhanced
aspartate metabolism and polyamine-related metabolites (putrescine, spermine, MTA) (MOLM-16 xenograft tumors; all doses): significantly reduced
